Where a chain is given by its changes, count along the chain named. Read-outs that look alike come from different tables or passages of the source.
Tests used:
[1] = target: T1, E. blattae 1,3-propanediol dehydrogenase (PDD), mutant His 105 to Leu, ATCC PTA-92 (Eb_GEBT), SEQ ID NO: 2 (Shimwellia blattae, UniProt Q3ZL59, H105L); assay: Kinetics of mutant 1,3-propanediol dehydrogenase (PDD), partially purified from E. blattae 33429 derivative PTA-92; format: biochemical, Escherichia blattae
T1 construct: concentrated on PM30 membrane
T1 sequence (Q3ZL59 1-387 H105L): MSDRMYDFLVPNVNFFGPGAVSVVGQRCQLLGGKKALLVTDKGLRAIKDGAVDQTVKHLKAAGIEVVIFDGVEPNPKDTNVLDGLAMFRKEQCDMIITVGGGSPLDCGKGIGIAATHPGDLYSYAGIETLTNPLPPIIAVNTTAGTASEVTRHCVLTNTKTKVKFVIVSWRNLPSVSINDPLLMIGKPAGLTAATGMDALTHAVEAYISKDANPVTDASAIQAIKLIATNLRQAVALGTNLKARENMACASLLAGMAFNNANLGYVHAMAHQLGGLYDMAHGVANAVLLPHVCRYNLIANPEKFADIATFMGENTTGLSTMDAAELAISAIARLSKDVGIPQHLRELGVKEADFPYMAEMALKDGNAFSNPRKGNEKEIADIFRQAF
Experimental: (§1) Strains—Wild type ATCC 33429, E. blattae comprising the mutant PDD ATCC accession number PTA-92.
(§2) Growth—Cells were grown in a complex medium at 30C 500 ml in a 2800 ml fernbach with shaking at 225 rpm for 20 hr. The medium consists of KH2PO4, 5.4 g/L; (NH4)2SO4, 1.2 g/L; MgSO47H2O, 0.4 g/L; yeast extract, 2.0 g/L; tryptone, 2.0 g/L; and glycerol, 9.2 g/L in tap water. The pH was adjusted to 7.1 with KOH before autoclaving (Honda, et al., 1980, J. Bacteriol, 143:1458-1465).
(§3) Extract prep—Cells were harvested by centrifugation with care to avoid anaerobic conditions. Pellets were resuspended in 100 mM Tricine pH 8.2 containing 50 mM KCl and 1 mM DTT. Cells were disrupted by passage through a French pressure cell. Crude extracts were clarified by centrifugation at 20 K×g for 20 min followed by 100 K×g for 1 hr to yield the high speed supernatant (HSS) fraction.
(§4) Assays—the assay for PDD was performed as described by Johnson, E. A. et al., 1987, J. Bacteriol. 169:2050-2054.
Partial purification of PDD—HSS was separated on a 16×100 Poros 20HQ column. The buffers were A, 60 mM HEPES, pH 7.4 containing 100 uM MnCl and B, A buffer containing 500 mM KCl. The column was loaded and developed at 10 ml/min. The gradient was 10 CV wash. A linear gradient to 70% B in 10 CV, and 1 CV to 100% B. The activity was detected in the very early fractions of the gradient. Pooled column fractions of the 33429 strain were used as collected for assays after the addition of additional DTT to 1 mM. The active fractions from the E. blattae 33429 derivative strain assigned designation PTA-92 were pooled and concentrated on a PM30 membrane and used as concentrated after the addition of additional 1 mM DTT.

[2] = target: T2, E. blattae 1,3-propanediol dehydrogenase (PDD), wild type, strain ATCC 33429 (Eb_429T), SEQ ID NO: 6 (Shimwellia blattae, UniProt Q3ZL59); assay: Kinetics of wild-type 1,3-propanediol dehydrogenase (PDD), partially purified from E. blattae ATCC 33429; format: biochemical, Escherichia blattae; conditions: wild type strain 33429, pooled column fractions with 1 mM DTT
T2 sequence (Q3ZL59 1-387): T1 sequence (Q3ZL59 1-387 H105L) with L105H
Experimental: as §1, §2, §3, §4
Partial purification of PDD—HSS was separated on a 16×100 Poros 20HQ column. The buffers were A, 60 mM HEPES, pH 7.4 containing 100 uM MnCl and B, A buffer containing 500 mM KCl. The column was loaded and developed at 10 ml/min. The gradient was 10 CV wash. A linear gradient to 70% B in 10 CV, and 1 CV to 100% B. The activity was detected in the very early fractions of the gradient. […]

| SMILES | Km for 1,3-propanediol (change in words) ([1]; mutant PDD) | Km of the mutant PDD relative to Km of wild-type PDD for 1,3-propanediol ([1]; mutant PDD vs wild-type PDD) | Km ([2]; read-out: Km (Propanediol)) | Km for NAD (change in words) ([1]; mutant PDD) | Km ([2]; read-out: Km (NAD)) |
| --- | --- | --- | --- | --- | --- |
| OCCCO [1,3-propanediol] | altered | about 3 times | 28 mM |  |  |
| NC(=O)c1ccc[n+]([C@@H]2O[C@H](COP(=O)([O-])OP(=O)(O)OC[C@H]3O[C@@H](n4cnc5c(N)ncnc54)[C@H](O)[C@@H]3O)[C@@H](O)[C@H]2O)c1 [NAD] |  |  |  | altered | 0.057 mM |

— patent US6558933B2, “Mutant 1,3-propanediol dehydrogenase” (Genencor International, INC, priority 1999, dated 2003)
